{"source": "patent US12246079B2", "about": "“Bisacurone composition and method of skin whitening” (Vidya Herbs, Inc., priority 2019, dated 2025)", "test_system": "B16F10 murine melanoma cells", "experiment": "Melanin content in α-MSH-stimulated B16F10 cells", "assay_type": "cell-based", "settings": "400 μg, vs α-MSH alone treated B16F10 cells", "procedure": "B16F10 cells (obtained from National Centre for Cell Sciences (NCCS), Pune, India) were cultured in Dulbecco's Modified Eagle's Medium (DMEM; Sigma Aldrich Co, St Louis, USA) with 10% fetal bovine serum (FBS) and penicillin/streptomycin (100 IU.50 Pg ml-1) in a humidified atmosphere of 5% CO2 at 37° C. The cells were cultured in 6-well plates for melanin quantification and enzyme activity assays.\nDetermination of melanin content of cells was done using a modification of the method of Bilodeau et al (Bilodeau et al 2001). In the present study, the amount of melanin was used as an index of melanogenesis. B16 F10 cells (5×10^4) were transferred to 24-well dishes and incubated in the presence or absence of 100 nM α-MSH. Cells were then incubated for 24 h with different concentration of the composition. After washing twice with PBS, samples were dissolved in 100 μl of 1N NaOH. The samples were then incubated at 60° C. for 1 h and mixed to solubilize the melanin. Absorbance at 405 nm was compared with a standard curve of synthetic melanin.\nIn order to assess the anti-melanogenesis activity of the composition, the melanin content was measured in both α-MSH-untreated and α-MSH-treated B16F10 cells. The cells were treated with/without α-MSH, followed by treatment with the composition at doses of 100, 200 and 400 μg/Ml (FIG. 4A).", "data": [{"smiles": "OC[C@H]1O[C@@H](Oc2ccc(O)cc2)[C@H](O)[C@@H](O)[C@@H]1O", "note": "[arbutin]", "values": [{"measurement": "decrease of melanin content", "result": 35.96, "unit": "%"}]}]}
